Source: publication PMC2811193, “Complementary Roles in Cancer Prevention: Protease Inhibitor Makes the Cancer Preventive Peptide Lunasin Bioavailable” (PLoS ONE, 2010)

Legend:
[1] = Bioavailability of 3H-lunasin after oral gavage with LES in CD-1 mice; format: in vivo
Experimental: Bioavailability studies in mice were done at North View Pacific Laboratories (Hercules, CA, USA), according with the Animal Care and Use Committee (ACUC) human guidelines. CD-1 mice (3-5 weeks old) were purchased from Jackson Laboratories (Bar Harbor, ME, USA) and conditioned on AIN76A diet for one week. Forty mice (20 male and 20 female) were fasted for 8 hrs before oral administration by gavage. Mice were separated into two groups, a control group receiving 240 mg of LES formulation and a treatment group receiving 240 mg of LES formulation plus 8 µCi of ^3H-lunasin (SibTech, Inc. Brookfield, CT, USA) in 0.1 mL of 10% sucrose solution. Four mice of each group were sacrificed at 3, 6, 9, 12 and 24 hrs after oral administration. The tissue samples were collected and prepared for scintillation counting by solubilizing in TS-2 tissue solubilizer (Research Products International Corp., Chicago, IL, USA) and addition of 15% benzoyl peroxide. Each sample was read in 5 ml of HionicFluor cocktail mix using a 1600TR liquid scintillation counter (Packard Inst. Meriden CT, USA).
Supplementary file pone.0008890.s001.tif: Figure S1 Recovery of ^3H-lunasin dose (expressed in percentage) in (-▴-) total, (-•-) tissues, and (-o-) gastrointestinal contents of mice at 3, 6, 9, 12, and 24 hours post-gavage of lunasin-enriched soy (LES). […]

[2] = tested on: MDA-MB-231 tumor xenografts; assay: Breast cancer prevention in MDA-MB-231 xenograft mouse model; format: in vivo, athymic NCr-nu/nu mice; conditions: for tumor incidence (mice showing tumors) / tumor incidence lower compared with the BBI group / tumor incidence lower compared with the control: seven weeks post-cells injection
Experimental: Human MDA-MB-231 breast cancer cells were obtained from ATCC and grown in Leibovitz's L-15 Medium supplemented with 10% FBS, 100 unit/ml penicillin, and 100 µg/ml streptomycin (Invitrogen), in a humidified atmosphere at 37°C.
Mice protocol was approved by ACUC (University of California, Berkeley, CA, USA). Thirty-two six weeks-old athymic NCr-nu/nu mice (National Cancer Institute, Frederick, MD, USA) were acclimatized for 1 week and randomly divided into four groups (n = 8): control group (receiving PBS), BBI-group (receiving BBI at 20 mg/kg body weight), and two lunasin-groups (receiving synthetic lunasin [Chengdu KaiJie Bio-Pharmaceutical Co., Chengdu, P.R. China] at 20 mg/kg body weight and 4 mg/kg body weight). After two months of i.p. treatment three times a week, mice were injected subcutaneously in the right flank with 1×10^7 MDA-MB-231 cells suspended in 0.1 ml of Matrigel Basement Membrane Matrix (Becton Dickinson, Bedford, MA, USA). Tumor growth was monitored by palpation, and the onset when tumors were detectable was noted. Tumor size was measured with calipers, and tumor volume was calculated assuming the shape as ellipsoid. Tumor incidence in percentage was calculated as the number of tumor-bearing mice divided by the total number of mice in each group, whereas tumor generation was calculated as the total number of tumors divided by total number of mice in each group. The volume of the tumor was determined using the following formula: tumor volume = length × width^2 ×0.523 [41].
At the end of the experiment, animals were sacrificed, and tumors were dissected and weighed. Individual tumors were split for fixation in the Shando Glyo-Fixx™ (Thermo Scientific, Pittsburgh, PA, USA) for histological examination. The paraffin-embedded sections were stained with hematoxylin and eosin (H&E).

MDA-MB-231 tumors = assay: In situ TUNEL assay for apoptosis in xenograft tumor sections; format: in vivo, athymic NCr-nu/nu mice; conditions: lunasin 20 and 4 mg/kg (P = 0.0088, 0.0141 vs control), BBI 20 mg/kg i.p.
Experimental: In situ terminal deoxynucleotidyl transferase-mediated dUTP nick end labeling (TUNEL) assay was performed using ApopTag Detection Kit (Millipore, USA & Canada) and ran based on the manufacturer's protocol. Briefly, deparaffinized and rehydrated sections were pretreated with 20 µg/mL proteinase K for 15 min and incubated with terminal transferase and digoxigenin dUTP at 37°C for 1 h. After washing, sections were incubated with antidigoxigenin rhodamine (Millipore) and DAPI (Invitrogen), and slides were visualized by fluorescent microscopy (Axiophot 381). The apoptotic cells were calculated as percentage of positive cells over total number of cells counted in microscope at 400× magnification.

skin papilloma = conditions: applied topically at 250 mg/week; SENCAR mice; cited from earlier work
Description: […] […] This is consistent with another observation that lunasin slows down epidermal cell proliferation in mouse skin in the absence and presence of DMBA using a ^2H2O label ...

[3] = 4 mg/kg body weight i.p., n = 8

Structure (SMILES): CC[C@H](C)[C@H](NC(=O)[C@H](CCCCN)NC(=O)[C@H](CCC(=O)O)NC(=O)[C@H](CCSC)NC(=O)[C@@H](NC(=O)[C@H](Cc1c[nH]cn1)NC(=O)[C@H](CCCCN)NC(=O)[C@H](CCC(=O)O)NC(=O)[C@H](CS)NC(=O)[C@@H]1CCCN1C(=O)[C@@H](NC(=O)[C@H](CC(C)C)NC(=O)[C@H](CC(N)=O)NC(=O)[C@@H](NC(=O)CNC(=O)[C@H](CCC(N)=O)NC(=O)[C@H](CC(C)C)NC(=O)[C@H](CCC(N)=O)NC(=O)[C@H](CCCCN)NC(=O)[C@H](CCCNC(=N)N)NC(=O)[C@H](CS)NC(=O)[C@H](CO)NC(=O)[C@H](CC(=O)O)NC(=O)[C@H](CCC(N)=O)NC(=O)[C@H](CCC(N)=O)NC(=O)[C@H](Cc1c[nH]cn1)NC(=O)[C@H](CCC(N)=O)NC(=O)[C@H](Cc1c[nH]c2ccccc12)NC(=O)[C@H](CCCCN)NC(=O)[C@@H](N)CO)C(C)C)[C@@H](C)O)[C@@H](C)CC)C(=O)N[C@@H](CCC(N)=O)C(=O)NCC(=O)N[C@@H](CCCNC(=N)N)C(=O)NCC(=O)N[C@@H](CC(=O)O)C(=O)N[C@@H](CC(=O)O)C(=O)N[C@@H](CC(=O)O)C(=O)N[C@@H](CC(=O)O)C(=O)N[C@@H](CC(=O)O)C(=O)N[C@@H](CC(=O)O)C(=O)N[C@@H](CC(=O)O)C(=O)N[C@@H](CC(=O)O)C(=O)N[C@@H](CC(=O)O)C(=O)O [lunasin]
- total oral dose of lunasin absorbed ([1]; 3 hrs post-gavage, 3H-labelled synthetic lunasin (8 µCi) mixed with 240 mg LES, CD-1 mice fasted 8 hrs, scintillation counting of tissues): approximately 30%
- crossing of the blood-brain barrier ([1]; oral gavage of 3H-lunasin with LES, CD-1 mice, 3H radioactivity in brain): able to cross the blood-brain barrier
- tumor incidence (mice showing tumors) ([2]; 4 mg/kg body weight i.p. three times a week, n = 8): 50%
- decrease of the sizes of tumors (tumor volume) versus control mice [2, 3]: 34%
- tumor generation lower relative to BBI group [2, 3]: 69%
- tumor incidence lower compared with the BBI group ([2]; 4 mg/kg body weight i.p.): 43%
- tumor incidence lower compared with the control ([2]; 4 mg/kg body weight i.p.): 33%
- tumor generation lower relative to control ([2]; 4 mg/kg body weight i.p., total number of tumors / total number of mice, P = 0.029 vs control, n = 8): 70%
- tumor incidence (mice showing tumors) ([2]; 20 mg/kg body weight i.p. three times a week, n = 8): 38%
- decrease of the sizes of tumors (tumor volume) versus control mice ([2]; 20 mg/kg body weight i.p., n = 8): 23%
- tumor incidence lower compared with the BBI group ([2]; 20 mg/kg body weight i.p.): 57%
- tumor incidence lower compared with the control ([2]; 20 mg/kg body weight i.p.): 49%
- tumor generation ([2]; 20 mg/kg body weight i.p., versus vehicle-treated group): reduced
- weight of tumors at the end of the experiment ([2]; both doses of lunasin (20, 4 mg/kg) compared to control-group (P = 0.2134, 0.1880) and BBI-group (P = 0.0909, 0.0569)): lower
- body weight ([2]; i.p. three times a week, BBI 20 mg/kg, lunasin 20 and 4 mg/kg body weight, compared among the four groups, n = 8): No significant differences
- appearance of tumors ([2]; lunasin 20 and 4 mg/kg i.p.): delay in the appearance of tumors
- TUNEL-positive apoptotic cells in tumors (MDA-MB-231 tumors): significantly increased apoptosis
- suppression of skin papilloma formation compared with the control (skin papilloma): 70%
